The numbers were not newly measured in patent US11512314B2, “Amphiphilic polynucleotides” (Duke University, priority 2019, dated 2022), which cites them from elsewhere.

Read-outs that look alike come from different tables or passages of the source.

For data set [1] the following is noted: free 5FU, reported value.
The conditions of data set [2]: small molecule drug.
In data set [3] the target is prostate-specific membrane antigen (PSMA) (Homo sapiens, UniProt Q04609). To be noted: binding to PSMA.
Chain of prostate-specific membrane antigen (PSMA) (Q04609 whole entry): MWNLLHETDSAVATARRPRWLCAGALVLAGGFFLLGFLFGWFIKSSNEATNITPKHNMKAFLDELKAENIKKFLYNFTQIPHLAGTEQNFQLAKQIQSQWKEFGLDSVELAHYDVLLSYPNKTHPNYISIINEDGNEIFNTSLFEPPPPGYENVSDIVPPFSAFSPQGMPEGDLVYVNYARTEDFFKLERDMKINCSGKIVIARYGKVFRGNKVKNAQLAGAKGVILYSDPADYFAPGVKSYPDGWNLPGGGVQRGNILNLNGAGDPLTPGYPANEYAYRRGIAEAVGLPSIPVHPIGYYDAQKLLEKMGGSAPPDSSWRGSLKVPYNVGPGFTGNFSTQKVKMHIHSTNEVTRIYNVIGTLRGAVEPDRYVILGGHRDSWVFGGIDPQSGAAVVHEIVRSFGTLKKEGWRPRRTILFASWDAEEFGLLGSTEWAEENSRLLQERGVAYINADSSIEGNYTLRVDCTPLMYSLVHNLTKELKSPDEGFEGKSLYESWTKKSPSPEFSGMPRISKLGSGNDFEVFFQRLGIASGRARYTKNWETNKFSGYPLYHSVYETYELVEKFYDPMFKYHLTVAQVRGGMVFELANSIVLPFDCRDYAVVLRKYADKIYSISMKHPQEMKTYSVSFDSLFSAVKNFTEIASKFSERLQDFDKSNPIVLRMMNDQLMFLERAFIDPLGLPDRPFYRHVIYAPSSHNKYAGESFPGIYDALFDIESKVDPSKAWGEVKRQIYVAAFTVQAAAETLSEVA

Regarding `O=c1[nH]cc(F)c(=O)[nH]1` [5FU], the “reported MTD” value in data set [1] is 15 to 20 mg/kg; in data set [1] (listed as 5-FU) it was 20 mg/kg. The half-life in data set [2] was 8 to 14 min.

On to “5′-GGGAGGACGAUGCGGAUCAGCCAUGUUUACGUCACUCCU-3′ (listed as RNA, chemistry not given here) [A10]”, for which the Kd in data set [3] is 2.1 nM.

What is called half-life is the time in which the quantity being followed falls by half. The Kd is a measure of binding affinity in units of concentration.
